The target in the assay is T1, rhBACE-1 β-Secretase recombinant human (Homo sapiens, UniProt P56817).
T1 construct: purchased R&D Systems 931-AS
Kind of assay: BACE assay (FRET, fluorogenic peptide substrate cleavage). It counts as biochemical. Conditions: for activity at 10 µM: read-out: % BACE Activity (10^-5 M). From the text: The aim of this assay is to determine if a compound, either synthetic or of marine origin, is a BACE-1 inhibitor, to avoid the formation of Aβ. This assay is based on FRET technology (Fluorescence Resonance Energy Transfer). FRET is used to measure cleavage of a peptide substrate, among other uses. […] When a substrate peptide cleavage occurs, the energy balance is broken and all the donor fluorescence can be observed. The increase in fluorescence is linearly related to the rate of proteolysis (Gordon, GW et al., 1998). In this assay the reaction occurs between an enzyme, purified BACE-1, and a fluorogenic peptidic substrate who present the "Swedish mutation". The peptide cleavage by BACE-1 produces fluorescence energy and enzymatic activity can be quantified. The reagents which are used in this assay are the following: • rhBACE-1 β-Secretase recombinant human (R&D Systems. Ref. 931-AS). • Fluorogenic Peptide Substrate IV (R&D Systems. Ref. ES004). • B-SECRETASE INHIBITOR H-4848. (BACHEM. Ref. H-4848.0001). • FLUOSTAR OPTIMA plate reader with 320 nm excitation filter and 405 nm emission filter (Biogen cientifica). • Black microwell plate, 96 wells (Nunc. Ref. 00006877). Supplier: Dismadel. • Sodium acetate.
The assay is carried out in a 96 wells microplate. The final concentration of substrate is 3,5 µM per well, and the enzyme concentration is 0,5 µg/ml. The final volume of the assay is 100 µl per well and all reagents are diluted in Reaction Buffer. The compounds are tested at a concentration of 10^-5. The control in the assay is the commercial inhibitor β-Secretase inhibitor H-4848, which is tested at 300 nM. All the samples and controls are studied by duplicate.
The plate is mixed gently and changes in the fluorescence are measured using the plate reader, with "BACE" protocol. The temperature should be preferably maintained between 25 and 30 °C. Measurements are carried out every ten minutes during an hour. The first measure is subtracted from the last to calculate the fluorescence increase, evaluating the enzymatic activity. The 100% activity is calculated as the mean of the results of wells without sample or inhibitor.
Further information regarding this assay may be found in the following references, which are incorporated by reference into the present application: • Andrau, D et al; "BACE1- and BACE2-expressing human cells: characterization of beta-Amyloid precursor protein-derived catabolites, design of a novel fluorimetric assay, and identification of new in vitro inhibitors". J Biol Chem. 2003 Jul 11;278(28):25859-66. Gordon, GW et al; "Quantitative fluorescence resonance energy transfer measurements using fluorescence microscopy." Biophys J. 1998 May; 74:2702-13.

Setting [1] is: comparative examples (derivatives of arachidonic acid) at 10^-5 M, mean results, remaining enzyme activity, 100% = wells without sample or inhibitor.
Setting [2] is: fatty acids of formula (I) at 10^-5 M, mean results, remaining enzyme activity, 100% = wells without sample or inhibitor.

Results on 9 molecules are retold here after EP1772146A1, “Polyunsaturated fatty acids as bace inhibitors” (Neuropharma, S.A., priority 2005, dated 2007).

Read-outs that look alike come from different tables or passages of the source.

T1 sequence (P56817 46-457 limits assumed): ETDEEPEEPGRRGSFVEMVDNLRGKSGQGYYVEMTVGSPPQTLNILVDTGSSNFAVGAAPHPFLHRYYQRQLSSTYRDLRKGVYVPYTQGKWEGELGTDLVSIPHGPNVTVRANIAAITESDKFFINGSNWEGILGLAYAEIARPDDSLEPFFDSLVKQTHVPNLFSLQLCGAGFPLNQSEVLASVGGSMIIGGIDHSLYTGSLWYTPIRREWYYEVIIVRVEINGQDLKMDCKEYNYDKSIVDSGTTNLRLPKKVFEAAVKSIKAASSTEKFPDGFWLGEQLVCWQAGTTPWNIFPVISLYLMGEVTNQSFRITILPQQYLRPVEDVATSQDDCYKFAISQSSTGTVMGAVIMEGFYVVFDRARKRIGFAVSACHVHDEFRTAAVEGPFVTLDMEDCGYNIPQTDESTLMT

On to `CC/C=C\C/C=C\C/C=C\CCCCCCCC(=O)O` [Linolenic acid, cis,cis,cis-9,12,15-Octadecatrienoic acid], for which the activity at 10 µM turned out to be 55.5%. For the molecule `CCCCC/C=C\C/C=C\C/C=C\C/C=C\CCCC(=O)O` [Arachidonic acid, cis,cis,cis,cis-5,8,11,14-Eicosatetraenoic acid], the activity at 10 µM is 48.7%. On the same count and under the same terms, in the case of `CCCCCC=CCC=CCC=CCC=CCCCC(=O)NCCO` [Anandamide, Icosa-5,8,11,14-tetraenoic acid (2-hydroxy-ethyl)-amide] it was 100%. With `CCCCCC=CCC=CCC=CCC=CCCCCO` [Arachidonyl alcohol, Icosa-5,8,11,14-tetraen-1-ol], the activity at 10 µM under setting [1] came out at 100%.

`CCCCC/C=C\C/C=C\CCCCCCCC(=O)O` [Linoleic acid, cis-9,cis-12-Octadecadienoic acid]: under setting [2], the activity at 10 µM came to 55%. For “Cyclopropanecarboxylic acid icosa-5,8,11,14-tetraenylam ide [Arachidonylcyclopropylamide (ACPA)]”, where the note is “comparative examples (derivatives of arachidonic acid) at 10^-5 M, mean results, remaining enzyme activity, 100% = wells without sample or inhibitor, 10 µM”, the “% BACE Activity (10^-5 M)” value came to 100%. On to `CCCCCC=CCC=CCC=CCC=CCCCC(=O)OCC` [Ethyl arachidonate, 5,8,11,14-Eicosatetraenoic acid ethyl ester], for which, under setting [1], the activity at 10 µM came to 100%. The same measure, in the same setting: in the case of `CCCCCC=CCC=CCC=CCC=CCCCCOC(C)=O` [Arachidonyl Acetate, Acetic acid icosa-5,8,11,14-tetraenyl ester] it was 100%.

In the case of `CC/C=C\C/C=C\C/C=C\C/C=C\C/C=C\C/C=C\CCC(=O)O` [Docosahexaenoic acid (DHA), cis-4,7,10,13,16,19-Docosahexaenoic Acid], under setting [2], the activity at 10 µM worked out at 82%.
